Values joined by “and” are separate entries in the source; they are usually repeats but may differ in a detail not shown here. Equal values may be shown once. Starred links: 1 amine or outer side, 2 acyl side, 3 side chain; linkers in the order of their positions; H or OH if unused. Positions of bridges follow the written chain, without caps; N, C: chain ends. Non-standard residues stand in square brackets, D forms with d. Residues, ends and D or L forms follow the SMILES beside them. Chains are numbered I, II in the order given. X1 = NC(=O)[C@H](CCCCNC(=O)COCCOCCN[*:1])N[*:2]; 2Nal = N[C@@H](Cc1ccc2ccccc2c1)C(=O)O; CH2CH2 = C(C[*:2])[*:1]

The target of test [1] is T1, Kelch-like ECH-associated protein 1 (Homo sapiens, UniProt Q14145). As to the kind of experiment: Binding affinity to human KEAP1 Kelch domain (residues Ala321-Thr609) expressed in Escherichia coli BL21(DE3) cells assessed as dissociation constant by SPR direct binding assay.
T1 sequence (Q14145 whole entry, the tested form may be a part): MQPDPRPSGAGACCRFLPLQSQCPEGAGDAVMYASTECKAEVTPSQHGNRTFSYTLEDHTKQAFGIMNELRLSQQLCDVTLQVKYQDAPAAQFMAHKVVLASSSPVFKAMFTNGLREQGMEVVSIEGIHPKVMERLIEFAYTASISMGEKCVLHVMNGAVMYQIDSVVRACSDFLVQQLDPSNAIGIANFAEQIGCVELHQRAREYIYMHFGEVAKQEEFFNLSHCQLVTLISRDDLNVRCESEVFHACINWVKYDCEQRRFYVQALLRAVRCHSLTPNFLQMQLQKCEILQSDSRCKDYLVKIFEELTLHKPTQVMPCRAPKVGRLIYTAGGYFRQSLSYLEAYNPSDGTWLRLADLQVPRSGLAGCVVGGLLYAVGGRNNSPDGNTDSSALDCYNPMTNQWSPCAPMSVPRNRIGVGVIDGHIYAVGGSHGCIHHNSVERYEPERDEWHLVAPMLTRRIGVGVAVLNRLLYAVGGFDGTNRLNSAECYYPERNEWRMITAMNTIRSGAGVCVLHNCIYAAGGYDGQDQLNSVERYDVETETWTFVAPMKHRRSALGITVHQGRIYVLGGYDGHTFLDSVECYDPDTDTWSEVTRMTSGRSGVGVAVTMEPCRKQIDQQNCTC
In test [2] the target is T1, Kelch-like ECH-associated protein 1. As to the kind of experiment: Binding affinity to human KEAP1 Kelch domain (residues Ala321-Thr609) expressed in Escherichia coli BL21(DE3) cells assessed as dissociation constant by isothermal titration calorimetric analysis.
The target in test [3] is T2, Keap1/Nrf2 (Homo sapiens, UniProt Q14145).
T2 sequence (Q16236 whole entry): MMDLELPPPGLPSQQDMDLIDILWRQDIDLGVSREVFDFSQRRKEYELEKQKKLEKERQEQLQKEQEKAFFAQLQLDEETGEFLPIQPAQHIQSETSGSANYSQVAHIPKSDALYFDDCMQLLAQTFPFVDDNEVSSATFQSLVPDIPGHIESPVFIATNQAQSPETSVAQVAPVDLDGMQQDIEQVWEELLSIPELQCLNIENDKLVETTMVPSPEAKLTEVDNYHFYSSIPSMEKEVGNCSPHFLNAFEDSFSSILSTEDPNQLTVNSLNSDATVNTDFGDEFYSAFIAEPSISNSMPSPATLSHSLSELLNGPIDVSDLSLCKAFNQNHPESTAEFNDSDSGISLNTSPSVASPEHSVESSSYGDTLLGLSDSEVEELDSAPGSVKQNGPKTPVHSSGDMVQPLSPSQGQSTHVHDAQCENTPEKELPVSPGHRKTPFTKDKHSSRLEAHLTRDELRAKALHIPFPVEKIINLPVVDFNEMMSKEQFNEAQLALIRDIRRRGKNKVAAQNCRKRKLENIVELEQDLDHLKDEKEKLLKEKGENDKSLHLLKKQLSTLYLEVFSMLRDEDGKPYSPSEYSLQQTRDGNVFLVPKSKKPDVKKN
T2 sequence (Q14145 whole entry): as the sequence (Q14145 whole entry, the tested form may be a part) above
The target of test [4] is T1, Kelch-like ECH-associated protein 1.
Test [5] concerns the target T2, Keap1/Nrf2. The source holds these as a separate data set.
For test [6], the target named is T2, Keap1/Nrf2. As to the kind of experiment: Inhibition of human Keap1-Nrf2 protein-protein interaction expressed in U2OS cells incubated for 6 hrs by cellular Keap1-Nrf2 functional assay. It counts as cell-based.
Test [7] concerns the target T1, Kelch-like ECH-associated protein 1. As to the kind of experiment: Binding affinity to human KEAP1 by fluorescence polarization assay. For orientation: Polarisation of emitted light reports the rotation of a fluorescent probe.
Test [8] shares this target. The test is described as follows: Binding affinity to human KEAP1 incubated for 1 hr by absorbance based analysis.
In test [9] the target is T2, Keap1/Nrf2. As to the kind of experiment: Inhibition of human Keap1-Nrf2 protein-protein interaction by ELISA method. Type of test: protein assay. (In general: In an ELISA, binding on a coated surface is turned into a signal by an enzyme label.)
The target of test [10] is T1, Kelch-like ECH-associated protein 1. The source holds these as a separate data set.
Test [11] has the same target. As to the kind of experiment: Binding affinity to human KEAP1 by fluorescence anisotropy assay.
For test [12] the target is unchanged. As to the kind of experiment: Binding affinity to human KEAP1 Kelch domain by SPR direct binding assay. On the technique in general: Surface plasmon resonance follows binding to a sensor surface in real time, without labels.

By Kd is commonly meant the equilibrium constant for the complex coming apart. `N[C@@H](CCC(=O)O)C(=O)N[C@@H](Cc1c[nH]c2ccccc12)C(=O)N[C@@H](Cc1c[nH]c2ccccc12)C(=O)N[C@@H](Cc1c[nH]c2ccccc12)C(=O)O` (H-EWWW-OH): the Kd was 77000 nM in test [1] and 10000 nM in test [2].
Broadly, the IC50 is the midpoint of a concentration-inhibition curve. Read a low IC50 as greater potency. Compound `C[C@H](Oc1cccc(-c2cccc(-n3ncc(C(=O)O)c3[C@@H]3C[C@H]3c3cn(C)nn3)c2)c1)C1CCCCC1` gave a concentration for half-maximal inhibition (IC50) in test [3] of 10 nM.
`COc1ccc(S(=O)(=O)N(Cc2nnn[nH]2)c2ccc(N(Cc3nnn[nH]3)S(=O)(=O)c3ccc(OC)cc3)c3ccccc23)cc1`: the Kd in test [4] turned out to be 39.8 nM. The concentration for half-maximal inhibition (IC50) in test [3] turned out to be 14.4 nM; in test [5] it was 15.8 nM.
As for `COC1=C(NCC(=O)O)CC(O)(CO)C/C1=N\C(CO)C(=O)O` (stereo not drawn), the IC50 in [3] is 100000 nM and 185000 nM.
As a reminder, the EC50 is the concentration giving half of the maximal effect. A high value points to weaker potency. On to `CC1=NN(c2ccccc2)C(=O)/C1=C/c1ccc(OS(=O)(=O)c2ccccc2[N+](=O)[O-])cc1`, for which, in test [6], the EC50 was found to be 1460 nM.
Take `CC[C@H](C)[C@@H]1NC(=O)[C@H](CC(=O)O)NC(=O)[C@H](CCC(N)=O)NC(=O)[C@H](CCCNC(=N)N)NC(=O)[C@H](Cc2c[nH]c3ccccc23)NC(=O)[C@H](CC(C)C)NC(=O)[C@H]([C@@H](C)CC)NC(=O)[C@H](CC(=O)O)NC(=O)[C@@H](NC(=O)[C@H](CC(C)C)NC(=O)[C@H](CC(=O)O)NC(=O)[C@@H](N)CCSC)CSSC[C@@H](C(=O)N[C@@H](Cc2ccccc2)C(=O)N[C@@H](CO)C(=O)O)NC(=O)[C@H](Cc2ccccc2)NC(=O)[C@H](C(C)C)NC(=O)[C@H](CCC(=O)O)NC(=O)[C@H](CCCNC(=N)N)NC(=O)[C@H](CO)NC(=O)[C@H](C(C)C)NC(=O)CNC(=O)[C@H](CC(C)C)NC(=O)[C@H](CC(=O)O)NC1=O` (H-MDLCDILWRQDIDLGVSREVFCFS-OH; disulfide 4-22): binding in test [7] was put at a Kd of 51 nM.
Turning to `CC[C@H](C)[C@@H]1NC(=O)[C@H](CC(=O)O)NC(=O)[C@@H](N)Cc2ccc(cc2)OCCSC[C@@H](C(=O)O)NC(=O)[C@H](CCC(=O)O)NC(=O)CNC(=O)[C@H]([C@@H](C)O)NC(=O)[C@H](CCC(=O)O)NC1=O` (H-YDIETGEC-OH; linker 1-8 via CH2CH2), the dissociation constant (Kd) in test [8] worked out at 43 nM.
Consider `CC(=O)N1CCN(c2ccc(OCC3COC(Cn4ccnc4)(c4ccc(Cl)cc4Cl)O3)cc2)CC1` (stereo not drawn) [KETOCONAZOLE], for which the IC50 in [9] was 1670 nM. That is a single-digit micromolar value.
As for `N[C@@H](CC(=O)O)C(=O)N[C@@H](CC(=O)O)C(=O)N[C@@H](Cc1c[nH]c2ccccc12)C(=O)O` (H-Asp-Asp-Trp-OH), in test [7], the Kd stood at 100 nM.
In test [7], `NCCCC[C@H](NC(=O)[C@H](CCCCN)NC(=O)[C@@H](N)CC(=O)O)C(=O)O` (H-Asp-Lys-Lys-OH) had an equilibrium dissociation constant (Kd) of 120 nM.
Consider `O=C(O)c1ccc(NC2=C/C(=N/S(=O)(=O)c3ccc4ccccc4c3)c3ccccc3C2=O)cc1`, for which binding in test [10] was put at a Kd of 158 nM. The IC50 in test [3] turned out to be 2700 nM.
In [3], `CCCCC1CCCN1C(=O)c1cccc(-c2cccc(-n3ncc(C(=O)O)c3C3CC3)c2)c1` (stereo not drawn) showed a half-maximal inhibitory concentration (IC50) of 63 nM. This lies in the double-digit nanomolar range.
Compound `C[C@@H]1NC(=O)[C@H](CC(=O)O)NC(=O)[C@@H](N)Cc2ccc(cc2)OCCSC[C@@H](C(=O)O)NC(=O)[C@H](CCC(=O)O)NC(=O)CNC(=O)[C@H]([C@@H](C)O)NC(=O)[C@H](CCC(=O)O)NC1=O` (H-YDAETGEC-OH; linker 1-8 via CH2CH2) yielded a dissociation constant Kd in [8] of 40 nM.
Take `CCc1ccc(S(=O)(=O)N(CC(=O)O)c2cc(Sc3nc[nH]n3)c(O)c3ccccc23)cc1`: the results for the Kd in test [11] and in [10] were 1140 nM and 453 nM, respectively.
Consider `COC1=C(NCC(=O)O)CC(O)(CO)C/C1=N\C(C(=O)O)C(C)O` (stereo not drawn), for which the IC50 in test [3] is 100000 nM and 185000 nM.
In turn, `O=c1c2ccccc2nc2c3[nH]c4ccccc4c3ccn12` showed a Kd in test [12] of 19600 nM.
Compound `CC(C)C[C@@H]1NC(=O)[C@H](Cc2ccccc2)NC(=O)[C@H](CCC(=O)O)NC(=O)CNC(=O)[C@H]([C@@H](C)O)NC(=O)[C@H](CCC(=O)O)NC(=O)[C@@H]2CCCN2C(=O)[C@H](CC(=O)O)NC(=O)[C@H](CC(C)C)NC(=O)[C@H](CCC(=O)NCCOCCOCC(=O)NCCCC[C@H](NC(=O)CC[C@@H]2NC(=O)[C@H](CCCNC(=N)N)NC(=O)[C@H](CCCNC(=N)N)NC(=O)[C@H](CCCNC(=N)N)NC(=O)[C@H](CCCNC(=N)N)NC(=O)[C@H](Cc3ccc4ccccc4c3)NC(=O)[C@H](Cc3ccccc3)NC2=O)C(N)=O)NC(=O)CNC1=O` (I: cyclo(DPETGEFLGEL) / II: cyclo([2Nal]RRRREF); linker I:10-II:6 via X1) registered a dissociation constant (Kd) in [7] of 48 nM. Moreover, the IC50 in test [3] worked out at 153 nM.

Values taken from ChEMBL document CHEMBL5230090, “Recent progress in Keap1-Nrf2 protein-protein interaction inhibitors” (Eur J Med Chem, 2020).
